Laboratory results published in BigSolDB 2.1.

CC(=O)O[C@H]1NC(=O)[C@@H]1[C@@H](C)O[Si](C)(C)C(C)(C)C
solubility (mole fraction)
Conditions	293.15 K	298.15 K	303.15 K	308.15 K	313.15 K	318.15 K	323.15 K	328.15 K	333.15 K
in THF	0.238	0.242	0.251	0.264	0.278	0.3	0.323	0.342	0.368
in acetone	0.147	0.166	0.186	0.203	0.218	0.233	0.244	0.254	0.259
in acetonitrile	0.0493	0.0629	0.0792	0.0963	0.114	0.132	0.15	0.166	0.184
in chloroform	0.258	0.266	0.276	0.291	0.308	0.325	0.347	0.371	0.403
in cyclohexane	0.0028	0.00408	0.00582	0.00838	0.0116	0.0163	0.0223	0.0306	0.0413
in ethanol	0.0492	0.0601	0.072	0.0859	0.104	0.121	0.145	0.17	0.2
in ethyl acetate	0.159	0.179	0.198	0.216	0.24	0.264	0.294	0.326	0.356
in methanol	0.0593	0.069	0.0809	0.0959	0.113	0.134	0.161	0.193	0.233
in n-butyl acetate	0.13	0.145	0.163	0.18	0.199	0.221	0.251	0.288	0.326
in n-hexane	0.00287	0.00411	0.00577	0.00813	0.0116	0.0161	0.022	0.0305	0.0422
in toluene	0.0796	0.096	0.116	0.141	0.163	0.186	0.209	0.238	0.265
